The source of these data is publication PMC7878891 (Scientific Reports, 2021).

Assay [1] concerns the target PL^proCoV2 (recombinant SARS-CoV-2 PL^pro) (Severe acute respiratory syndrome coronavirus 2, UniProt P0DTD1). In kind it is biochemical. As to conditions: for IC50: read-out: IC50 toward PL^proCoV2.
Assay [2] has as its target PL^proSARS (recombinant SARS-CoV-1 PL^pro) (Severe acute respiratory syndrome coronavirus, UniProt P0C6X7). The experiment in a line: biochemical. The class given is biochemical.
The target of assay [3] is PL^proCoV2 (Severe acute respiratory syndrome coronavirus 2, UniProt P0DTD1). In kind it is biochemical, SARS-CoV-2.
The target of assay [4] is PL^proSARS (Severe acute respiratory syndrome coronavirus, UniProt P0C6X7). The class given is biochemical, SARS-CoV-1.
Assay [5] has as its system CoV2. As to conditions: read-out: EC50 antiviral activity in cell-based assay; cited from earlier work.

Take `O=c1c2ccccc2[se]n1-c1ccccc1O` [1d, 2-(2-Hydroxyphenyl)-1,2-benzisoselenazol-3(2H)-one]: in assay [1], the “Inhibition of PL^proCoV2 at 2 μM” value is on record as “fully” and the IC50 is 236 nM.

Regarding `COc1ccccc1-n1[se]c2ccccc2c1=O` [1e, 2-(2-Methoxyphenyl)-1,2-benzisoselenazol-3(2H)-one], in assay [1], the “Inhibition of PL^proCoV2 at 2 μM” value is on record as “fully” and the IC50 was found to be 256 ± 35 nM.

For the molecule `O=C(Nc1ccccc1O)c1ccccc1[Se][Se]c1ccccc1C(=O)Nc1ccccc1O` [2d, Bis[2-(2-hydroxyphenylcarbamoyl)phenyl] diselenide], in assay [1], the IC50 turned out to be 339 ± 109 nM.

Consider `COc1ccccc1NC(=O)c1ccccc1[Se][Se]c1ccccc1C(=O)Nc1ccccc1OC` [2e, Bis[2-(2-methoxyphenylcarbamoyl)phenyl] diselenide], for which the IC50 in assay [1] turned out to be 263 ± 121 nM.

Consider `O=c1c2ccccc2[se]n1-c1ccccc1` [ebselen, 2-Phenyl-1,2-benzisoselenazol-3(2H)-one], for which, in assay [1], the “Mechanism of inhibition of PL^proCoV2” value was “irreversible”. Further, the “Mechanism of inhibition of PL^proSARS” value in assay [2] is listed as “irreversible”. In addition, the IC50 in assay [2] (IC50 PL^proSARS 60 min incubation) is 8450 ± 960 nM; in assay [2] (IC50 PL^proSARS no incubation) it was more than 200000 nM. Besides, the “Reactivation of PL^proCoV2 after dialysis” value in assay [3] is listed as “reactivation was not observed”. The “Reactivation of PL^proSARS after dialysis” value in assay [4] is on record as “reactivation was not observed”. For the same molecule, in assay [5], the EC50 is 4670 nM.

For orientation: IC50 means the concentration that inhibits the measured activity by half. The EC50 is the concentration giving half of the maximal effect.
